Data on 45 compounds can be found in PubChem BioAssay AID1645871.

The conditions of this series: pampa; pH 5.0; 30.0 min; 50.0 µM.

Broadly, the Papp is a coefficient for how fast a substance crosses the barrier. A higher Papp goes with fast passage.

Take `Oc1ccc(-c2nc(C3CC3)nc3c2CCN(Cc2ccc(F)cc2)CC3)cc1`: the Papp was 421 ×10⁻⁶ cm/s. With `COc1ccc2c(c1)CN(C(=O)CCN1CCC(Cc3ccccc3)CC1)CCS2` the figure was 807 ×10⁻⁶ cm/s. Compound `CN(C)c1ccc(CN2CCNc3cc(Nc4ccccc4)ncc3C2)cc1` came in with a Papp of 107 ×10⁻⁶ cm/s. Compared with the last compound, the Papp is about 7.5-fold lower. Under `CCOc1ccccc1CNS(=O)(=O)c1ccc(-c2cnc(C3CC3)o2)cc1` stands > 1000 ×10⁻⁶ cm/s; under `CCC(=O)N1CCN(c2ccc(-n3c(=O)ccc4cnc5ccc(-c6cnc7ccccc7c6)cc5c43)cc2C(F)(F)F)CC1`, 537 ×10⁻⁶ cm/s. Under `CCN(c1ccccc1)S(=O)(=O)c1c(C)nc2scc(C)n2c1=O` stands 479 ×10⁻⁶ cm/s; under `COc1ccc(C2c3c(oc4ccc(C)cc4c3=O)C(=O)N2CCCN2CCOCC2)cc1OC` (stereo not given), 19.2 ×10⁻⁶ cm/s; under `CNC(=O)c1ccc(C)c(-n2c(C)cc(OCc3ccc(F)cc3F)c(Br)c2=O)c1`, 627 ×10⁻⁶ cm/s. `COc1cccc(C(=O)Nc2nc(-c3nnn(-c4ccccc4C(F)(F)F)c3C)ns2)c1` registered a Papp of 834 ×10⁻⁶ cm/s.

Take `O=C(NCCCN1CCCC1=O)c1ccc(-c2ncc3cnc(-c4ccccc4)cn23)cc1`: the Papp came to 193 ×10⁻⁶ cm/s. With `COC(=O)c1ccc(O)c2ncc(N3CCN(C)CC3)cc12` the figure was 80.1 ×10⁻⁶ cm/s; with `O=C(NCCCO)c1ccc(-c2ncc3cnc(-c4cccc(F)c4)cn23)cc1`, 21.2 ×10⁻⁶ cm/s; with `COc1ccc(-n2nc(C)c([C@@H]3C=C[C@@H](NCc4ccc(F)cc4)C3)c2C)cc1`, 482 ×10⁻⁶ cm/s. Under `C[C@H]1CN(C(=O)Nc2ccc(F)cc2F)C[C@@H]1c1nc(-c2ccccc2)no1` stands 917 ×10⁻⁶ cm/s. With `CCN1CCCC1CNC(=O)c1cc(S(=O)(=O)CC)c(N)cc1OC` (stereo not given) the figure was 6.63 ×10⁻⁶ cm/s; with `COc1ccc(Nc2cnc3ccc(-c4ccc(OC)c(OC)c4)nn23)cc1`, 821 ×10⁻⁶ cm/s; with `CCc1cc(Cl)c(OC)c(C(=O)NC[C@@H]2CCCN2CC)c1O`, 899 ×10⁻⁶ cm/s. In the case of `COc1ccc(-n2nc(C3CCN(C(=O)c4ccccc4)CC3)[nH]c2=O)cc1`, the Papp is 250 ×10⁻⁶ cm/s. Compound `CN(C)[C@@H]1CCN(c2cccc(Nc3nn4c(=O)c5ccccc5nc4s3)c2)C1` showed an apparent permeability coefficient (Papp) of 24.9 ×10⁻⁶ cm/s.

As to `CS(=O)(=O)CCNCc1ccc(-c2ccc3ncnc(Nc4ccc(OCc5cccc(F)c5)c(Cl)c4)c3c2)o1`, the Papp is 69.7 ×10⁻⁶ cm/s. On to `NC(=O)Nc1cc(-c2ccc(CN3CCOCC3)cc2)sc1C(N)=O`, for which the Papp was 1.19 ×10⁻⁶ cm/s. `COc1cc2ncnc(Oc3cccc(NC(=O)Nc4cc(C(C)(C)C(F)(F)F)on4)c3)c2cc1OC` displayed a Papp of 137 ×10⁻⁶ cm/s. Under `CC(=O)c1c(C)oc2ccc(N(C(=O)Oc3ccccc3)S(=O)(=O)c3ccccc3)cc12` stands > 1000 ×10⁻⁶ cm/s; under `COc1ccccc1Nc1ccnc(N2CCN(C(=O)c3ccc(C)cc3)CC2)n1`, > 1000 ×10⁻⁶ cm/s; under `Fc1ccc(N2CCCN(CC3[C@H]4CNC[C@@H]34)CC2)cc1` (stereo not given in full), 48.8 ×10⁻⁶ cm/s. Under `COC(=O)C1=C(C)NC(C)=C(C(=O)O[C@@H]2CCCN(Cc3ccccc3)C2)[C@@H]1c1cccc([N+](=O)[O-])c1` stands > 1000 ×10⁻⁶ cm/s. Under `Cc1ccccc1C(=O)NC1CCN(c2ccc3nnc(C4CC4)n3n2)CC1` stands 35 ×10⁻⁶ cm/s. `COc1ccc2[nH]c(S(=O)Cc3ncc(C)c(OC)c3C)nc2n1` (stereo not given): the Papp turned out to be 49.8 ×10⁻⁶ cm/s.

As for `Cc1nc(-c2ccco2)cc([C@H]2CN3CC[C@H]2C[C@@H]3CNC(=O)NC2CCCCC2)n1`, the Papp came out at 4.96 ×10⁻⁶ cm/s. `NC(=O)N1CCCC(C(=O)N2CCCN(c3ccc(F)cc3)CC2)C1` (stereo not given): the Papp is 96.2 ×10⁻⁶ cm/s. For the compound `C[C@H]1CN(C(=O)Nc2ccc(F)cc2)C[C@@H]1c1nc(-c2ccccc2)no1`, the Papp amounted to 809 ×10⁻⁶ cm/s. This Papp is about 8.4-fold higher than that of the compound before. With `C=Cc1ccc(Cn2c(C(=O)O)c(CNC3CCCCC3)c3ccc(OC)cc32)cc1` the figure was 702 ×10⁻⁶ cm/s; with `CCc1ccc(-n2nc(C)c3c2NC(=O)CSC3c2ccccc2C)cc1` (stereo not given), 707 ×10⁻⁶ cm/s. With `Cc1onc(-c2ccc(F)cc2)c1COc1ccc(C(=O)N2CCS(=O)(=O)CC2)cn1` the figure was 291 ×10⁻⁶ cm/s. As for `CC(C)c1ccc(CC(=O)N2CCCc3ncc(C(=O)Nc4cccnc4)cc32)cc1`, the Papp is 932 ×10⁻⁶ cm/s. This Papp lies about 3.2-fold higher than the previous one. Under `CCCCc1ccc(NC(=O)c2ccc3c(c2)N(S(C)(=O)=O)CC3)cc1` stands 385 ×10⁻⁶ cm/s; under `CCC(CC)c1cc([C@H]2CN3CC[C@H]2C[C@@H]3CNC(C)=O)nc(-c2ccncc2)n1`, 14.9 ×10⁻⁶ cm/s. With `COC(=O)c1ccc(NS(=O)(=O)c2c(C)nc3sccn3c2=O)cc1` the figure was 413 ×10⁻⁶ cm/s; with `O=c1[nH]c(C2CCCN(CC3CCCCC3)C2)nn1-c1ccc(Cl)cc1` (stereo not given), > 1000 ×10⁻⁶ cm/s; with `CCCCN(C)C(=O)c1c(C)sc2ccn(CCC)c(=O)c12`, 113 ×10⁻⁶ cm/s. As for `COc1cccc(C(=O)Nc2ccc3oc(-c4ccc5ccccc5c4)nc3c2)c1`, the Papp was determined as 756 ×10⁻⁶ cm/s. Under `Cc1n[nH]c(C)c1CCc1nc2c3ccccc3nc(SCC(=O)Nc3ccc(F)cc3)n2n1` stands 383 ×10⁻⁶ cm/s; under `CCC(CC)c1cc([C@H]2CN3CC[C@H]2C[C@@H]3CNC(=O)COc2ccccc2)nc(-c2ccncc2)n1`, 374 ×10⁻⁶ cm/s; under `CN1CCN(C(=O)Cc2c[nH]c3ncc(-c4ccccc4Oc4ccccc4)cc23)CC1`, 578 ×10⁻⁶ cm/s.

`COc1ccccc1Nc1ccnc(N2CCN(C(=O)c3ccc(F)cc3)CC2)n1` yielded a Papp of 853 ×10⁻⁶ cm/s.
